Test results reported in PubChem BioAssay AID256 (DTP/NCI, 2004).
“And” between values parts separate entries of the source, which are not always exact repeats. Equal entries are not always repeated. Toxic doses and inconclusive results are not listed. The calls were made as follows: active = survival T/C of 150% or more; inactive = T/C below 125% in these data.

System: CD2F1 mice, L1210 leukemia ip, survival T/C
Assay: NCI In Vivo Anticancer Drug Screen. Data for tumor model L1210 Leukemia (intraperitoneal) in CD2F1 (CDF1) mice
Settings: higher = longer survival
How it was run: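 Tumor-bearing mice (transplanted tumor) were split into treated and vehicle control groups, and the measured endpoint of each treated group was divided by that of its vehicle controls.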

[1] = endpoint: mean survival time, dose: 100.0 mg/kg/injection, schedule: Q04DX002 (ip), vehicle: saline with Tween-80
[2] = endpoint: mean survival time, dose: 200.0 mg/kg/injection, schedule: Q04DX002 (ip), vehicle: saline with Tween-80
[3] = endpoint: mean survival time, dose: 50.0 mg/kg/injection, schedule: Q01DX009 (ip), vehicle: saline with Tween-80
[4] = endpoint: mean survival time, dose: 100.0 mg/kg/injection, schedule: Q01DX009 (ip), vehicle: saline with Tween-80
[5] = endpoint: mean survival time, dose: 12.5 mg/kg/injection, schedule: Q01DX009 (ip), vehicle: saline with Tween-80
[6] = endpoint: mean survival time, dose: 25.0 mg/kg/injection, schedule: Q01DX009 (ip), vehicle: saline with Tween-80
[7] = endpoint: mean survival time, dose: 100.0 mg/kg/injection, schedule: Q04DX003 (ip), vehicle: saline with Tween-80
[8] = endpoint: mean survival time, dose: 200.0 mg/kg/injection, schedule: Q01DX009 (ip), vehicle: saline with Tween-80
[9] = endpoint: mean survival time, dose: 200.0 mg/kg/injection, schedule: Q04DX003 (ip), vehicle: saline with Tween-80
[10] = endpoint: mean survival time, dose: 400.0 mg/kg/injection, schedule: Q01DX009 (ip), vehicle: saline with Tween-80
[11] = endpoint: mean survival time, dose: 400.0 mg/kg/injection, schedule: Q04DX003 (ip), vehicle: saline with Tween-80

Measured: T/C

CCOC(=O)C(C(=S)NC)=S(C)C
inactive: endpoint: mean survival time, dose: 100.0 mg/kg/injection, schedule: Q01DX001 (ip), vehicle: other 92 % of control | endpoint: mean survival time, dose: 200.0 mg/kg/injection, schedule: Q01DX001 (ip), vehicle: other 88 % of control | endpoint: mean survival time, dose: 400.0 mg/kg/injection, schedule: Q01DX001 (ip), vehicle: other 105 % of control

CNc1nc(-c2ccncc2)nc(N(C)C)n1
inactive: [1] 96 % of control | [2] 88 % of control

CC(C)(CCC(=O)O)c1cccc(Cl)c1
inactive: [3] 96 % of control | [4] 93 % of control

COc1ccc(-n2cnc3c(=O)[nH]cnc32)cc1
inactive: [1] 86 % of control | [2] 90 % of control | endpoint: mean survival time, dose: 400.0 mg/kg/injection, schedule: Q04DX002 (ip), vehicle: saline with Tween-80 86 % of control

O=Cc1ccc([N+](=O)[O-])s1
inactive: endpoint: mean survival time, dose: 3.12 mg/kg/injection, schedule: Q01DX009 (ip), vehicle: saline with Tween-80 102 % of control and 108 % of control | endpoint: mean survival time, dose: 6.25 mg/kg/injection, schedule: Q01DX009 (ip), vehicle: saline with Tween-80 96 % of control and 102 % of control | [5] 97 % of control and 98 % of control | [6] 104 % of control and 105 % of control | [3] 103 % of control and 107 % of control | [4] 109 % of control

CC1=C(CCC#N)C(=O)C(CCC#N)C(C)(C)C1 (stereo not given)
inactive: [1] 94 % of control | [2] 89 % of control

CC1(C)C(=O)C(C)(C)C1=NNc1ccc([N+](=O)[O-])cc1[N+](=O)[O-]
inactive: endpoint: median survival time, dose: 50.0 mg/kg/injection, schedule: Q04DX002 (ip), vehicle: saline with Tween-80 90 % of control | endpoint: median survival time, dose: 100.0 mg/kg/injection, schedule: Q04DX002 (ip), vehicle: saline with Tween-80 100 % of control | endpoint: median survival time, dose: 200.0 mg/kg/injection, schedule: Q04DX002 (ip), vehicle: saline with Tween-80 90 % of control | endpoint: median survival time, dose: 400.0 mg/kg/injection, schedule: Q04DX002 (ip), vehicle: saline with Tween-80 100 % of control

O=C(O)CCC(=O)c1ccc(Br)cc1
inactive: [4] 94 % of control | [7] 101 % of control | [8] 103 % of control | [9] 97 % of control | [10] 91 % of control | [11] 89 % of control

O=CC=O
inactive: [5] 100 % of control and 106 % of control | [6] 103 % of control and 107 % of control | [3] 97 % of control and 106 % of control | [4] 115 % of control and 107 % of control | [8] 106 % of control and 111 % of control | [10] 120 % of control and 108 % of control

CC12CCC(c3cn(C(=O)c4cccnc4)nc31)C2(C)C (stereo not given)
inactive: endpoint: mean survival time, dose: 50.0 mg/kg/injection, schedule: Q01DX009 (ip), vehicle: Klucel (hydroxypropylcellulose) (HPC) 102 % of control | endpoint: mean survival time, dose: 100.0 mg/kg/injection, schedule: Q01DX009 (ip), vehicle: Klucel (hydroxypropylcellulose) (HPC) 94 % of control

CC1(C)CC(O)(Cc2ccccc2)C(C)(O)c2ccccc21 (stereo not given)
inactive: [4] 102 % of control | [8] 88 % of control | [10] 86 % of control

CCCCCCC(C/C=C\CCCCCCCC(=O)OC)OC(C)=O (stereo not given)
inactive: [7] 101 % of control | [9] 101 % of control | [11] 97 % of control

O=C1OC(=O)C2C3CC(C(Br)C3Br)C12 (stereo not given)
inactive: endpoint: mean survival time, dose: 100.0 mg/kg/injection, schedule: Q01DX001 (ip), vehicle: saline 97 % of control | [4] 106 % of control | endpoint: mean survival time, dose: 200.0 mg/kg/injection, schedule: Q01DX001 (ip), vehicle: saline 98 % of control | [8] 104 % of control | endpoint: mean survival time, dose: 400.0 mg/kg/injection, schedule: Q01DX001 (ip), vehicle: saline 97 % of control | [10] 101 % of control

O=P1(CCBr)NCCCO1 (stereo not given)
inactive: endpoint: mean survival time, dose: 62.5 mg/kg/injection, schedule: Q01DX001 (ip), vehicle: water 100 % of control | endpoint: mean survival time, dose: 125.0 mg/kg/injection, schedule: Q01DX001 (ip), vehicle: water 97 % of control | endpoint: mean survival time, dose: 250.0 mg/kg/injection, schedule: Q01DX001 (ip), vehicle: water 94 % of control | endpoint: mean survival time, dose: 500.0 mg/kg/injection, schedule: Q01DX001 (ip), vehicle: water 97 % of control | endpoint: mean survival time, dose: 750.0 mg/kg/injection, schedule: Q01DX001 (ip), vehicle: water 102 % of control

ClCCN(CCCl)c1ccc(CCCCN2CCOCC2)cc1
inactive: endpoint: mean survival time, dose: 10.0 mg/kg/injection, schedule: Q01DX009 (ip), vehicle: saline 119 % of control | endpoint: mean survival time, dose: 40.0 mg/kg/injection, schedule: Q01DX009 (ip), vehicle: saline 103 % of control

CC(=O)Nc1ccc(OC(=O)Nc2ccc(F)c(Cl)c2)cc1
inactive: [4] 98 % of control | [8] 93 % of control | [10] 110 % of control

C=COC(=O)NC(CC(C)C)C(=O)O (stereo not given)
inactive: endpoint: mean survival time, dose: 75.0 mg/kg/injection, schedule: Q01DX001 (ip), vehicle: saline 103 % of control | endpoint: mean survival time, dose: 150.0 mg/kg/injection, schedule: Q01DX001 (ip), vehicle: saline 101 % of control

S=C(NNC(=S)Nc1ccc(Cl)cc1)NNc1ccccc1
inactive: endpoint: mean survival time, dose: 50.0 mg/kg/injection, schedule: Q01DX009 (ip), vehicle: acetone 95 % of control | endpoint: mean survival time, dose: 100.0 mg/kg/injection, schedule: Q01DX009 (ip), vehicle: acetone 97 % of control

CON(C)C(=O)N1c2ccccc2Sc2ccccc21
inactive: [7] 87 % of control | [9] 87 % of control

O=C1C=C(S(=O)(=O)O)c2ccccc2C1=O
inactive: endpoint: mean survival time, dose: 100.0 mg/kg/injection, schedule: Q04DX003 (ip), vehicle: saline 105 % of control | endpoint: mean survival time, dose: 200.0 mg/kg/injection, schedule: Q04DX003 (ip), vehicle: saline 103 % of control | endpoint: mean survival time, dose: 400.0 mg/kg/injection, schedule: Q04DX003 (ip), vehicle: saline 108 % of control

O=C(CCC(O)(C(=O)c1ccccc1)c1ccccc1)c1ccccc1 (stereo not given)
inactive: [7] 91 % of control | [9] 94 % of control | [11] 88 % of control

O=C1c2c(Cl)c(Cl)c(Cl)c(Cl)c2C(=O)N1O
inactive: [7] 98 % of control | [8] 98 % of control | [9] 98 % of control | [11] 101 % of control

N#CC(/C=C/c1ccccc1)NCC(O)c1ccccc1 (stereo not given)
inactive: endpoint: mean survival time, dose: 100.0 mg/kg/injection, schedule: Q01DX001 (ip), vehicle: saline with Tween-80 97 % of control | endpoint: mean survival time, dose: 200.0 mg/kg/injection, schedule: Q01DX001 (ip), vehicle: saline with Tween-80 101 % of control | endpoint: mean survival time, dose: 400.0 mg/kg/injection, schedule: Q01DX001 (ip), vehicle: saline with Tween-80 93 % of control

COc1ccc(CCc2nc(CCCCO)[nH]c2C)cc1OC
inactive: [4] 92 % of control

O=c1[nH]c(=O)n2ncc(Br)c2[nH]1
inactive: endpoint: median survival time, dose: 50.0 mg/kg/injection, schedule: Q01DX005 (ip), vehicle: saline 102 % of control | endpoint: median survival time, dose: 100.0 mg/kg/injection, schedule: Q01DX005 (ip), vehicle: saline 102 % of control

ClC1(Cl)Cc2ccccc21
inactive: endpoint: mean survival time, dose: 266.0 mg/kg/injection, schedule: Q04DX003 (ip), vehicle: saline sonified 96 % of control | endpoint: mean survival time, dose: 400.0 mg/kg/injection, schedule: Q04DX003 (ip), vehicle: saline sonified 88 % of control | endpoint: mean survival time, dose: 600.0 mg/kg/injection, schedule: Q04DX003 (ip), vehicle: saline sonified 100 % of control | endpoint: median survival time, dose: 50.0 mg/kg/injection, schedule: Q01DX005 (ip), vehicle: saline with Tween-80 102 % of control | endpoint: median survival time, dose: 100.0 mg/kg/injection, schedule: Q01DX005 (ip), vehicle: saline with Tween-80 113 % of control | endpoint: median survival time, dose: 200.0 mg/kg/injection, schedule: Q01DX005 (ip), vehicle: saline with Tween-80 102 % of control

c1ccc2c(c1)[nH]c1c2c[n+]2c3c(cccc13)CCC2
inactive: endpoint: mean survival time, dose: 6.25 mg/kg/injection, schedule: Q01DX001 (ip), vehicle: saline 101 % of control | endpoint: mean survival time, dose: 12.5 mg/kg/injection, schedule: Q01DX001 (ip), vehicle: saline 107 % of control

NC(N)=NCCNC(=O)C1CCC(N)C1 (stereo not given)
inactive: endpoint: mean survival time, dose: 0.63 mg/kg/injection, schedule: Q01DX009 (ip), vehicle: saline 96 % of control | endpoint: mean survival time, dose: 1.25 mg/kg/injection, schedule: Q01DX009 (ip), vehicle: saline 96 % of control
